Source: patent US7138403B2, “2,4,5-trisubstituted thiazolyl derivatives and their antiinflammatory activity” (Janssen Pharmaceutica N.V., priority 2001, dated 2006)

Columns and labels:
IL-12p70 production = assay: In vitro inhibition of IL-12p70 production in human blood (LPS-stimulated whole blood, ELISA); type: cell-based; settings: test dose 1 × 10^−8 M, LPS 100 ng/ml, 24 hours, read-out: % inhib. IL-12 (p70)
Method: In Vitro Inhibition of IL-12p70 Production in Human Blood Human Whole Blood Stimulation Peripheral blood from healthy donors was drawn into heparinized syringes (12.5 U heparin/ml). Blood samples were three-fold diluted in RMPI 1640 medium (Life Technologies, Belgium) supplemented with 2 mM L-glutamine, 100 U/ml penicillin and 100 μg/ml streptomycin, and 200 μl fractions were distributed in 96-well plates (Nunc, Roskilde, Denmark). Blood samples were preincubated (5 minutes at 37° C.) in a humidified 5% CO2-atmosphere with 25 μl of drug solvent (final concentration 0.1% dimethylsulfoxide in RPMI 1640) or with 25 μl of an appropriate dose of test compound before being stimulated by the addition of 25 μl of lipopolysaccharide at a final concentration of 100 ng/ml. After 24 hours, cell-free supernatant fluids were collected by centrifugation and stored at −20° C. until tested for the presence of IL-12. Cytokine Measurements Cytokine protein concentrations were determined by sandwich ELISA as described in Van Wauwe et al. (1996, Inflamm Res, 45,357–363). The quantikine HS kit (R &D HS120, Abingdon, United Kingdom) was used to quantify the cytokine levels (IL12 p70) in the supernatant

IL-12p40 production = assay: In vitro inhibition of IL-12p40 production in human blood (LPS-stimulated whole blood, ELISA); type: cell-based; settings: test dose 1 × 10^−6 M, LPS 100 ng/ml, 24 hours, read-out: % inhib. IL-12 (p40)
Method: In Vitro Inhibition of IL-12p40 Production in Human Blood
Human Whole Blood Stimulation
Peripheral blood from healthy male donors was drawn into heparinized syringes (12.5 U heparin/ml). Blood samples were three-fold diluted in RMPI 1640 medium (Life Technologies, Belgium) supplemented with 2 mM L-glutamine, 100 U/ml penicillin and 100 μg/ml streptomycin, and 300 μl fractions were distributed in 24-well multidisc plates (Nunc, Roskilde, Denmark). Blood samples were preincubated (60 minutes at 37° C.) in a humidified 6% CO2-atmosphere with 100 µl of drug solvent (final concentration 0.02% dimethylsulfoxide in RPMI 1640) or with 100 μl of an appropriate dose of test compound before being stimulated by the addition of 100 μl of lipopolysaccharide at a final concentration of 100 ng/ml. After 24 hours, cell-free supernatant fluids were collected by centrifugation and stored at −20° C. until tested for the presence of IL-12 p40.
Cytokine protein concentrations were determined by sandwich ELISA as described in Van Wauwe et al. (1996, Inflamm Res, 45, 357–363). Murine monoclonals used as capture antibodies to human cytokines were obtained from R&D Systems (Abingdon, United Kingdom) and code named MAB210 and MAB611 for TNF-α and IL-12 p40 respectively. Biotinylated goat polyclonal antibodies used to detect human cytokines were from R&D Systems (BAF210, BAF219). Cytokine levels were calculated from standard curves using recombinant cytokines supplied by R&D Systems.

Row | SMILES | inhibition at 0.01 µM (IL-12p70 production) | inhibition at 1 µM (IL-12p40 production)
1 | Cc1nc(-c2ccc(C(F)(F)F)cc2)sc1-c1ccnc(NCCC(=O)O)n1 [Compound 84] | 95% | –
2 | Cc1nc(-c2ccc(C(F)(F)F)cc2)sc1-c1ccnc(C#N)n1 [Compound 40] | – | 93%
3 | Cc1nc(-c2ccc(C(F)(F)F)cc2)sc1-c1ccnc(N)n1 [Compound 9] | 92% | 57%
4 | Cc1nc(-c2ccc(C(F)(F)F)cc2)sc1-c1ccnc(NCCCN)n1 [Compound 38] | – | 93%
5 | Cc1nccc(-c2sc(-c3ccc(C(F)(F)F)cc3)nc2C)n1 [Compound 35] | 94% | –
6 | COc1nccc(-c2sc(-c3ccc(C(F)(F)F)cc3)nc2C)n1 [Compound 83] | – | 59%
7 | Cc1nc(-c2ccc(C(F)(F)F)cc2)sc1-c1nc(N)ncc1F [Compound 49] | – | 92%
8 | Cc1nc(-c2ccc(C(F)(F)F)cc2)sc1-c1ncnc(N)n1 [Compound 81] | 94% | –
9 | Cc1nc(-c2ccc(C(F)(F)F)cc2)sc1-c1ccnc(N(CCO)CCO)n1 [Compound 70] | 90% | –
10 | Cc1nc(-c2ccc(C(F)(F)F)cc2)sc1-c1cc(O)nc(N)n1 [Compound 80] | – | 49%
11 | Cc1nc(-c2ccc(C(F)(F)F)cc2)sc1-c1ccnc(NCC(=O)O)n1 [Compound 90] | – | 56%
